ChEMBL document CHEMBL5241126, “Design and synthesis of 6-methylpyridin-2-one derivatives as novel and potent GluN2A positive allosteric modulators for the treatment of cognitive impairment” (Bioorg Med Chem, 2023)

Assays:
[1] = Metabolic stability in human liver microsomes assessed as clearance at 1 uM incubated for 15 to 30 mins in the presence of NADPH generating system by LC-MS/MS analysis; format: ADME, Microsome; conditions: time 15-30 min, read-out: CLH
[2] = 1-Octanol/aqueous buffer partition coefficient, logD of the compound at pH 7.4 by chromatographic method based UV-visible detector; format: physicochemical
Glutamate receptor 2 = Glutamate receptor 2 (Homo sapiens, UniProt P42262); experiment: Displacement of [3H]-HBT1 from His-tagged GluA2-AMPA receptor LBD (unknown origin) in presence of glutamate by scintillation proximity assay
Glutamate receptor 2, sequence (P42262 whole entry, the tested form may be a part): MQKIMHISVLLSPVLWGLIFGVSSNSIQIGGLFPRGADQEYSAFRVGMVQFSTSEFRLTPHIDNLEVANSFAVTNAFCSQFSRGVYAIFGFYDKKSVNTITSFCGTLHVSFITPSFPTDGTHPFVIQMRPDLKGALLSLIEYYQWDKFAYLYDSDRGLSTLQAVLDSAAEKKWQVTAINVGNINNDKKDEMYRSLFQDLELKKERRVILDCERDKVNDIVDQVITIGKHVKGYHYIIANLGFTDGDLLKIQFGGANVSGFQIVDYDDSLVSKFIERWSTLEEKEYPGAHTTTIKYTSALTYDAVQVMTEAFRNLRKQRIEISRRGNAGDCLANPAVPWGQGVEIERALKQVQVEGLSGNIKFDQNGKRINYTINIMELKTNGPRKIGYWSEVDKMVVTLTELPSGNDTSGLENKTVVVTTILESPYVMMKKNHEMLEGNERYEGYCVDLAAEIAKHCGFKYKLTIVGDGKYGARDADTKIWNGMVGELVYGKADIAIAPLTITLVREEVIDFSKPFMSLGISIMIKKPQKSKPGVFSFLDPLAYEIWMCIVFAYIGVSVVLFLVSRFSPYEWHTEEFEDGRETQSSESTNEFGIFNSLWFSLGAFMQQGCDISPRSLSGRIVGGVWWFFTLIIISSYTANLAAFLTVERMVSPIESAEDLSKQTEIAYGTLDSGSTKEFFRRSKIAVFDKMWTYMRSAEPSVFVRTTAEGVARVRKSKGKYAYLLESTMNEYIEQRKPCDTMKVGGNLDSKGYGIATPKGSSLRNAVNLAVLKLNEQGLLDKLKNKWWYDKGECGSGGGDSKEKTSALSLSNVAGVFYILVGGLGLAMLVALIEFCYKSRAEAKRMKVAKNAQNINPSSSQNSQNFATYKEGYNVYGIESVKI

[3] = Metabolic stability in rat liver microsomes assessed as clearance at 1 uM incubated for 15 to 30 mins in the presence of NADPH generating system by LC-MS/MS analysis; format: ADME, Microsome; conditions: time 15-30 min, read-out: CLH
[4] = target: Glutamate receptor ionotropic, NMDA 2D (Homo sapiens, UniProt O15399+Q05586); experiment: Positive allosteric modulator activity at GluN2D NMDA receptor (unknown origin) expressed in CHO cells co-expressing GluN1a in the presence of L-glutamate and glycine by Ca2+ influx assay; format: cell-based
[5] = Drug concentration in Sprague-Dawley rat brain at 10 mg/kg, po measured after 0.5 hrs by LC-MS/MS analysis; format: ADME, organism-based; conditions: read-out: Ct
[6] = Drug concentration in Sprague-Dawley rat brain at 10 mg/kg, po measured after 2 hrs by LC-MS/MS analysis; format: ADME, organism-based; conditions: read-out: Ct
[7] = target: Glutamate receptor ionotropic, NMDA 2B (Homo sapiens, UniProt Q05586+Q13224); experiment: Positive allosteric modulator activity at GluN2B NMDA receptor (unknown origin) expressed in CHO cells co-expressing GluN1a in the presence of L-glutamate and glycine by Ca2+ influx assay; format: cell-based
Glutamate receptor ionotropic, NMDA 2B, sequence (Q13224 whole entry, one chain of several): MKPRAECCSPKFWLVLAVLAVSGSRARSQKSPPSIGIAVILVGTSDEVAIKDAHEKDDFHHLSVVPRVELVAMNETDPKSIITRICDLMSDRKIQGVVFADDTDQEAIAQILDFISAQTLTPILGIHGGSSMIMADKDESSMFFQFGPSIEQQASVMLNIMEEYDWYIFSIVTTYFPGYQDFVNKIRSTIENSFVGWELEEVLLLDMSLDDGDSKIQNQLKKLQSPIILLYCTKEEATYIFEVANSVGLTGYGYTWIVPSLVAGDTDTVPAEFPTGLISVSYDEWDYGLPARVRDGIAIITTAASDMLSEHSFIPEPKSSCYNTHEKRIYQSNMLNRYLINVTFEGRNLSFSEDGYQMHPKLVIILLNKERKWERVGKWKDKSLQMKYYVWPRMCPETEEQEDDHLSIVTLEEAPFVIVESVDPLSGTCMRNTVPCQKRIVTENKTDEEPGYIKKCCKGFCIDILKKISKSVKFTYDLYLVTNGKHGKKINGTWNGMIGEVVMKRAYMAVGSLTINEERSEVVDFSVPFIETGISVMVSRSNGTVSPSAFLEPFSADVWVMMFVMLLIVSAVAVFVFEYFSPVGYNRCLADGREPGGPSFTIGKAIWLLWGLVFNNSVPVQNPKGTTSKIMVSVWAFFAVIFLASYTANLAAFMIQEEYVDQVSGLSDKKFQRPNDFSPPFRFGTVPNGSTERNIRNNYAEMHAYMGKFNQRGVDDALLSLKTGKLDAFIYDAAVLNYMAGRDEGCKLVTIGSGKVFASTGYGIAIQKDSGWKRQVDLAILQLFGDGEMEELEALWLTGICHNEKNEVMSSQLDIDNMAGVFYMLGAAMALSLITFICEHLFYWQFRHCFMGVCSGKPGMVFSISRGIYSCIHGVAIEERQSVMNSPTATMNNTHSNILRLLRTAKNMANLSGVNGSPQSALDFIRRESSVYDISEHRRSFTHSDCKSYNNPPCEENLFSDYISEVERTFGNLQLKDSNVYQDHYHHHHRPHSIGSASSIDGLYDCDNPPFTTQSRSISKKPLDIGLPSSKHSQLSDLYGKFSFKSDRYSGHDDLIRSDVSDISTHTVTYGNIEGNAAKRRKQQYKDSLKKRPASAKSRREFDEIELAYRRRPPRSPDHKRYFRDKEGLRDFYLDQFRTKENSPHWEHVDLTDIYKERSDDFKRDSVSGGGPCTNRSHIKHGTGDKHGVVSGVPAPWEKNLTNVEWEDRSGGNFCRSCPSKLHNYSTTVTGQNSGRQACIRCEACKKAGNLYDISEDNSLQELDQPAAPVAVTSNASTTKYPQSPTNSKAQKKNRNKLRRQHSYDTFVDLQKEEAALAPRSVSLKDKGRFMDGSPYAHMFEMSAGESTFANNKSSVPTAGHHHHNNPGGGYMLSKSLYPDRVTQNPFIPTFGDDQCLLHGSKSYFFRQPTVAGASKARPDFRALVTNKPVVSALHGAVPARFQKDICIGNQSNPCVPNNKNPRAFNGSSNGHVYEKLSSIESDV

[8] = Drug concentration in Sprague-Dawley rat plasma at 10 mg/kg, po measured after 2 hrs by LC-MS/MS analysis; format: ADME, organism-based
[9] = Drug concentration in Sprague-Dawley rat plasma at 10 mg/kg, po measured after 0.5 hrs by LC-MS/MS analysis; format: ADME, organism-based
[10] = Drug concentration in Sprague-Dawley rat brain at 10 mg/kg, po measured after 1 hrs by LC-MS/MS analysis; format: ADME, organism-based; conditions: read-out: Ct
[11] = Drug concentration in Sprague-Dawley rat plasma at 10 mg/kg, po measured after 1 hrs by LC-MS/MS analysis; format: ADME, organism-based
[12] = target: Glutamate receptor ionotropic, NMDA 2C (Homo sapiens, UniProt Q05586+Q14957); experiment: Positive allosteric modulator activity at GluN2C NMDA receptor (unknown origin) expressed in CHO cells co-expressing GluN1a in the presence of L-glutamate and glycine by Ca2+ influx assay; format: cell-based
Glutamate receptor ionotropic, NMDA 2C, sequence (Q14957 whole entry, one chain of several): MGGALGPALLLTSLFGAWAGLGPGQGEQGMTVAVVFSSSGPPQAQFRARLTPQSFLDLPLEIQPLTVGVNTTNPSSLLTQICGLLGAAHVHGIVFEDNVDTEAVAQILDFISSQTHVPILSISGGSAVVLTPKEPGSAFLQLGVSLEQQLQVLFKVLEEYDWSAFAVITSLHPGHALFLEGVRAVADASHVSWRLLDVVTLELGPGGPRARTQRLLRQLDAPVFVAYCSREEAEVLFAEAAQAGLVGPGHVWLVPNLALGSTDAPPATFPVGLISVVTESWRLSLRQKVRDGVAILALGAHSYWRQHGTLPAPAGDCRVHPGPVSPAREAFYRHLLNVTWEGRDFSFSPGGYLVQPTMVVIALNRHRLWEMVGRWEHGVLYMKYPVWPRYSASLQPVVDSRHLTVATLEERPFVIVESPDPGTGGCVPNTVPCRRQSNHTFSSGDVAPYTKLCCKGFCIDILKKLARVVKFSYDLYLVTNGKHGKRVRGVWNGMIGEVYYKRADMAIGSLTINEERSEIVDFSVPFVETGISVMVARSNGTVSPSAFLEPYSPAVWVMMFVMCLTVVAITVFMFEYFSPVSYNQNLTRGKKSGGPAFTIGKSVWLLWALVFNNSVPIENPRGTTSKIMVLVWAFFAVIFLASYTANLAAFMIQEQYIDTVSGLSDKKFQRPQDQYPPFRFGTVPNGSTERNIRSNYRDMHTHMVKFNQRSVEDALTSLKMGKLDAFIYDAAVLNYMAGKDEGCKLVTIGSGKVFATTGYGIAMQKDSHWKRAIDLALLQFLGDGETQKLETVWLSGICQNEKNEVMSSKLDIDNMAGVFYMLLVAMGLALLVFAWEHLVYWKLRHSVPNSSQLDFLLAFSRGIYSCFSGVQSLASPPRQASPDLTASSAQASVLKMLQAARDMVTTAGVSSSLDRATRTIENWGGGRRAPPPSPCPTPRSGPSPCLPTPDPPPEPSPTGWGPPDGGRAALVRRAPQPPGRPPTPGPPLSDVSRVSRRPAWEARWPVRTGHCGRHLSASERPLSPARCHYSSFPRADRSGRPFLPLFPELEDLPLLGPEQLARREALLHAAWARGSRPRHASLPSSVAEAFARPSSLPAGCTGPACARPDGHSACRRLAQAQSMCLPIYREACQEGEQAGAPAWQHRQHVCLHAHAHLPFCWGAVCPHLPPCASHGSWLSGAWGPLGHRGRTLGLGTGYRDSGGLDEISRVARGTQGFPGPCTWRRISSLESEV

[13] = target: Glutamate receptor ionotropic, NMDA 2A (Homo sapiens, UniProt Q05586+Q12879); experiment: Positive allosteric modulator activity at GluN2A NMDA receptor (unknown origin) expressed in CHO cells co-expressing GluN1a in the presence of L-glutamate and glycine by Ca2+ influx assay; format: cell-based
Glutamate receptor ionotropic, NMDA 2A, sequence (Q12879 whole entry, one chain of several): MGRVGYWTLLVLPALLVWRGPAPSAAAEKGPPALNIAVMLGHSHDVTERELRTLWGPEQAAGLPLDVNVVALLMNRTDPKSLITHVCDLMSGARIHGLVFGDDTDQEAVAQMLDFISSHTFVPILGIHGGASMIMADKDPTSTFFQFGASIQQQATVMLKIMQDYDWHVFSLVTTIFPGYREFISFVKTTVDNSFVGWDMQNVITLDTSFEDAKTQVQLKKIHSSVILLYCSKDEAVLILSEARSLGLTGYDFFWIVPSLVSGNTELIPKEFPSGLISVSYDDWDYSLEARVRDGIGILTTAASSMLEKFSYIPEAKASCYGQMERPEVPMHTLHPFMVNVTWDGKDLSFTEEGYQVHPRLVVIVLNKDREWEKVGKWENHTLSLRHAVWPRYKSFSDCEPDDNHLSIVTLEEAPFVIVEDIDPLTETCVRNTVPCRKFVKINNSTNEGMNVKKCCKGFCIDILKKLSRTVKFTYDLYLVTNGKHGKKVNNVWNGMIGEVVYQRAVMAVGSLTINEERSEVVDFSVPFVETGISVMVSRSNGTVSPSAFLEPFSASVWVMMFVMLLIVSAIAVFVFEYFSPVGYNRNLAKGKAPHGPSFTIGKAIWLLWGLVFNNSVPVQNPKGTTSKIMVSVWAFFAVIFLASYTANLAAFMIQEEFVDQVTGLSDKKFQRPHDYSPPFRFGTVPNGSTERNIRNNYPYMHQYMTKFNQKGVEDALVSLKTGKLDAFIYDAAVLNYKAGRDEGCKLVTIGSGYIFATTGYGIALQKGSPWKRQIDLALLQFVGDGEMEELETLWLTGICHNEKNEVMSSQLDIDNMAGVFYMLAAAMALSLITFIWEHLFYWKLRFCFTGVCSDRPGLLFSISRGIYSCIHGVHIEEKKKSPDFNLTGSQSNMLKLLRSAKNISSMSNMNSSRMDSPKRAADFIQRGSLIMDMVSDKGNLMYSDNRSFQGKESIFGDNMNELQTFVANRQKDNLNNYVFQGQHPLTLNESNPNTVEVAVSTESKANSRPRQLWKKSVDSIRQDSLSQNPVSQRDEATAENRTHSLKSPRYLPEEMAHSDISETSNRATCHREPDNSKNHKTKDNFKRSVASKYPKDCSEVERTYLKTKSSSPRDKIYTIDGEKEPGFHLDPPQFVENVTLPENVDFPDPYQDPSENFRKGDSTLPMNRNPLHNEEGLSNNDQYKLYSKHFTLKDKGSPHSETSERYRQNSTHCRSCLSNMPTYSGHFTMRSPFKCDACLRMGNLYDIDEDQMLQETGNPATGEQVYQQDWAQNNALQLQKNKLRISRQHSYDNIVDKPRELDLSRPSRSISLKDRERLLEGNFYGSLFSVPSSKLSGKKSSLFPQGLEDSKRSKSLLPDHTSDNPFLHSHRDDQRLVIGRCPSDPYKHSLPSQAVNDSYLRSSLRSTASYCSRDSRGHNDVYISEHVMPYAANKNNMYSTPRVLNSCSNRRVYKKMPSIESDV

| microsomal CLint at 1 µM [1] [µL/min/mg] | chromatographic logD [2] | IC50 (Glutamate receptor 2) [µM] | microsomal CLint at 1 µM [3] [µL/min/mg] | EC50 [13] [µM] | Structure (SMILES) | further results |
| --- | --- | --- | --- | --- | --- | --- |
| 24 | 2.5 | > 30 | 72 |  | Cc1cc(Cc2cccc(Br)c2)cc(=O)n1C[C@H]1C[C@@H]1C#N |  |
| 48 | 2.4 | 11 | > 768 |  | CCN(Cc1cc(C)n(C[C@H]2C[C@@H]2C#N)c(=O)c1)c1ccc(F)cc1 |  |
|  | 1.4 | > 30 |  |  | Cc1cc(Cn2nc(C(F)F)cc2Cl)cc(=O)n1C[C@H]1C[C@@H]1C#N |  |
| 12 | 1.6 | > 30 | 22 |  | Cc1cc(Cn2nc(Cl)cc2Cl)cc(=O)n1C[C@H]1C[C@@H]1C#N |  |
| 28 | 1.6 | > 30 | 14 |  | Cc1cc(Cn2nc(Br)cc2Cl)cc(=O)n1C[C@H]1C[C@@H]1C#N | EC50 [4]: 5.1 µM; concentration at 0.5 h [5]: 262 ng/g; concentration at 2 h [6]: 71 ng/g; EC50 [7]: > 30 µM; concentration at 2 h [8]: 0.362 µg/mL; concentration at 0.5 h [9]: 0.926 µg/mL; concentration at 1 h [10]: 111 ng/g; concentration at 1 h [11]: 0.59 µg/mL; EC50 [12]: 1.9 µM |
|  | 2.3 | > 30 | 75 |  | Cc1cc(Cc2cccc(Cl)c2)cc(=O)n1C[C@H]1C[C@@H]1C#N |  |
| 15 | 2.4 | > 30 | 26 | > 30 | Cc1cccc(Cc2cc(C)n(C[C@H]3C[C@@H]3C#N)c(=O)c2)c1 |  |
|  |  | 10 |  |  | CCN(Cc1cc(C)n(C[C@@H]2C[C@H]2C#N)c(=O)c1)c1ccc(F)cc1 (racemic) |  |
| 2 | 1.8 | 21 | 22 |  | Cc1cc(Cn2nc(C(F)(F)F)cc2Cl)cc(=O)n1C[C@H]1C[C@@H]1C#N |  |
|  | 2.4 | 16 |  |  | CCN(Cc1cc(C)n(C[C@@H]2C[C@H]2C#N)c(=O)c1)c1ccc(F)cc1 |  |
|  | 2.5 | 2.3 |  | > 30 | CCN(Cc1cc(C)n(CC2(C#N)CC2)c(=O)c1)c1ccc(F)cc1 |  |

Second part, the molecule before the results:

| Structure (SMILES) | microsomal CLint at 1 µM [1] [µL/min/mg] | chromatographic logD [2] | IC50 (Glutamate receptor 2) [µM] | microsomal CLint at 1 µM [3] [µL/min/mg] | EC50 [13] [µM] | further results |
| --- | --- | --- | --- | --- | --- | --- |
| CCN(Cc1ccn(CC2CC2)c(=O)c1)c1ccc(F)cc1 |  | 2.8 | 0.75 |  |  |  |
| CCN(Cc1cc(C)n(CC2CC2)c(=O)c1)c1ccc(F)cc1 |  | 3.2 | 9.9 |  |  |  |
| CCN(Cc1cc(=O)n(CC2CC2)c(C)n1)c1ccc(F)cc1 |  | 2.9 | 2.3 |  | 13 |  |
| CCN(Cc1cc(C)n(Cc2ccccc2)c(=O)c1)c1ccc(F)cc1 |  | 3.5 | 5.5 |  | > 30 |  |
| CCCc1cc(CN(CC)c2ccc(F)cc2)cc(=O)n1CC1CC1 |  | 4 | > 30 |  | 12 |  |
| CCN(Cc1cc(C)n(CC2CCC2)c(=O)c1)c1ccc(F)cc1 |  | 3.6 | 1.2 |  | 23 |  |
| CCc1cc(CN(CC)c2ccc(F)cc2)cc(=O)n1CC1CC1 |  | 3.6 |  |  | 13 |  |
| CCN(Cc1cc(C)n(CCCC#N)c(=O)c1)c1ccc(F)cc1 |  | 2.4 | 4.3 |  | > 30 |  |
